The test system of one assay is KTA-2 cell line. Description: PTHrP stimulation test (3H-TdR incorporation). It is filed as cell-based, human. Particulars: PTHrP(34-53) 0, 1, 10, 100 ng/mL, trypsin treatment at 24 hours and at 48 hours after addition. As to the method:
(§1) Briefly, anaplastic thyroid cell lines TTA-1 (hatched bars), TTA-2 (solid bars), and KTA-2 (unfilled bars) were seeded at 1×10^4 cells per well in a 96-well plate. Cells were incubated for two days in complete medium and then shifted to serum-free medium for day 3. Cells were treated with PTHrP (34-53) at 0, 1, 10, and 100 ng/mL and treated with trypsin 24 (top panel) and 48 (bottom panel) hours later. Cells were labeled with ^3H-TdR for 6 hours (0.25 μCi/well) and incorporation of label was measured by liquid scintillation counting. Measurements were performed in triplicate and average results are presented.
(§2) After treating TTA-1, TTA-2, and KTA-2 with trypsin, the number of viable cells not stained with trypan blue was counted with a hemocytometer. Subsequently, 1×10^4 cells were inoculated on a 96-well multi-plate (Falcon), and then cultured in a CO2 incubator at 37° C. for 2 days. On day 2 after culturing, the culture solution was replaced by a serum-free medium, and then culturing was performed for 1 day. PTHrP(34-53) (Calbiochem) at concentrations of 0 (PTHrP-free), 1, 10 and 100 ng/mL were added, followed by treatment with trypsin 24 and 48 hours later.
(§3) The cells were labeled with ^3H-TdR for 6 hours (0.25 μCi/well), collected, and then incorporation of ^3H-TdR was measured using a liquid scintillation counter. […]

In another assay the test system is TTA-1 cell line. In words: PTHrP stimulation test (3H-TdR incorporation). In kind it is cell-based, human. Particulars: PTHrP(34-53) 0, 1, 10, 100 ng/mL, trypsin treatment at 24 hours and at 48 hours after addition. How it is done:
as §1, §2, §3

As for “PTHrP(34-53): peptide fragment consisting the sequence of amino acids 34 to 53 of parathyroid hormone related peptide (Calbiochem) (AEIRATSEVSPNSKPSPNTK; listed as Homo sapiens)”, the “cell proliferation (incorporation of 3H-TdR)” value with KTA-2 cell line and with TTA-1 cell line was “proliferate depending on the concentration of PTHrP” each time.

For the origin of these results see patent US8029793B2, “Methods for inhibiting cell proliferation” (Chugai Seiyaku Kabushiki Kaisha, priority 2000, dated 2011).
